In BindingDB's records for doi:10.3109/14756366.2010.521745 (Sun Yat-Sen University, 2011):

Target: T1, Polyphenol oxidase 1 (White button mushroom, UniProt Q00024)
T1 sequence (Q00024 whole entry): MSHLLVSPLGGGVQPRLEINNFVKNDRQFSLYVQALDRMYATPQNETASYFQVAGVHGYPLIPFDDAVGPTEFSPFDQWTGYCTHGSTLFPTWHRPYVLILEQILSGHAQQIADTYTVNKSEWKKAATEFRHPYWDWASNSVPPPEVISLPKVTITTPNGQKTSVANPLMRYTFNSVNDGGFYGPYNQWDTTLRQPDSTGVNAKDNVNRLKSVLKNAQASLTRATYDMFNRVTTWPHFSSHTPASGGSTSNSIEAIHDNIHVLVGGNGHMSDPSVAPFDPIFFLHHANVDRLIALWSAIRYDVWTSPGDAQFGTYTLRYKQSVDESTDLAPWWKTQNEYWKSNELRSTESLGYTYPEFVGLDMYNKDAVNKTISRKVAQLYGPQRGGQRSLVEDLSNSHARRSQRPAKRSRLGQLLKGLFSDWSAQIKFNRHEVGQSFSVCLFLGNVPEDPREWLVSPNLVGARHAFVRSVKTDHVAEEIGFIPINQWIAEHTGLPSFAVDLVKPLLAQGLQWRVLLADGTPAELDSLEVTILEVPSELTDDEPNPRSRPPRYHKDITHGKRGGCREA
Assay: Tyrosinase Inhibition Assay
Details: pH 6.8; 25 °C
Protocol: In brief, a 10 μL sample was added to an assay mixture containing with 10 μL tyrosinase solution (0.5 mg/mL) and 900 μL phosphate buffer (pH 6.8) to a total volume assay mixture of 920 μL, for 20 min at 25°C. Then 80 μL of L-dopa (1.50 mg/mL) was added to the reaction mixture and the enzyme reaction was monitoredby measuring the change in absorbance at 475 nm of the L-dopa for 1 min.

| IC50 [µM] | SMILES |
| --- | --- |
| > 200 | O=C(c1ccc(O)cc1O)c1ccc(O)cc1O [Polyhydroxy benzophenone, 4] |
| > 200 | COc1cc(C(=O)c2ccc(O)cc2O)ccc1O [Polyhydroxy benzophenone, 5] |
| 17.4 | O=C(c1cc(O)c(O)c(O)c1)c1ccc(O)cc1O [Polyhydroxy benzophenone, 6] |
| 10.1 | O=C(c1ccc(O)cc1O)c1ccc(O)c(O)c1O [Polyhydroxy benzophenone, 8] |
| 6.4 | COc1cc(C(=O)c2ccc(O)c(O)c2O)ccc1O [Polyhydroxy benzophenone, 9] |
| 1.4 | O=C(c1cc(O)c(O)c(O)c1)c1ccc(O)c(O)c1O [Polyhydroxy benzophenone, 10] |
| > 200 | O=C(c1ccc(O)cc1O)c1c(O)cc(O)cc1O [Polyhydroxy benzophenone, 11] |
| > 200 | O=C(c1cccc(O)c1)c1ccc(O)cc1O [Polyhydroxy benzophenone, 12] |
| 98.3 | O=C(c1ccc(O)cc1)c1cc(O)c(O)c(O)c1 [Polyhydroxy benzophenone, 14] |
| 8.8 | O=C(c1ccccc1O)c1ccc(O)c(O)c1O [Polyhydroxy benzophenone, 15] |
| > 200 | O=C(c1ccccc1)c1c(O)cc(O)cc1O [Polyhydroxy benzophenone, 16] |
| > 200 | O=C(c1ccccc1)c1cccc(O)c1O [Polyhydroxy benzophenone, 18] |
| > 100 | O=C(c1ccc(O)cc1)c1ccc(O)c(O)c1O [hsp90_136] |
| 10.5 | O=C(c1ccccc1)c1ccc(O)c(O)c1O [phenyl(2,3,4-trihydroxyphenyl)methanone] |
